Measured values published in PMC4767141, “Discovery of Potent, Orally Bioavailable, Small-Molecule Inhibitors of WNT Signaling from a Cell-Based Pathway Screen” (Journal of Medicinal Chemistry, 2015).

Experiments:
CCR1 (h) = molecular target: T1, CCR1 (h) (Homo sapiens, UniProt P32246); assay: CEREP binding panel; conditions: agonist radioligand, read-out: % Inhibition of Control Specific Binding
T1 construct: purchased Millipore KinaseProfiler (kinases); Cerep (receptors and ion channels)

CCK1 (CCKA) (h) = molecular target: T2, CCK1 (CCKA) (h) (Homo sapiens, UniProt P32238); assay: CEREP binding panel; conditions: agonist radioligand, read-out: % Inhibition of Control Specific Binding
T2 construct: purchased Millipore KinaseProfiler (kinases); Cerep (receptors and ion channels)

PKCMU = molecular target: T3, PKCMU (Homo sapiens, UniProt Q15139); assay: Millipore kinase panel; type: biochemical; conditions: read-out: % Control
T3 construct: purchased Millipore KinaseProfiler (kinases); Cerep (receptors and ion channels)

CXCR2 (IL-8B) (h) = molecular target: T4, CXCR2 (IL-8B) (h) (Homo sapiens, UniProt P25025); assay: CEREP binding panel; conditions: agonist radioligand, read-out: % Inhibition of Control Specific Binding
T4 construct: purchased Millipore KinaseProfiler (kinases); Cerep (receptors and ion channels)

5-HT1A (h) = molecular target: T5, 5-HT1A (h) (Homo sapiens, UniProt P08908); assay: CEREP binding panel; conditions: agonist radioligand, read-out: % Inhibition of Control Specific Binding
T5 construct: purchased Millipore KinaseProfiler (kinases); Cerep (receptors and ion channels)

PAK5 = molecular target: T6, PAK5 (Homo sapiens, UniProt Q9P286); assay: Millipore kinase panel; type: biochemical; conditions: read-out: % Control
T6 construct: purchased Millipore KinaseProfiler (kinases); Cerep (receptors and ion channels)

STK33 = molecular target: T7, STK33 (Homo sapiens, UniProt Q9BYT3); assay: Millipore kinase panel; type: biochemical; conditions: read-out: % Control
T7 construct: purchased Millipore KinaseProfiler (kinases); Cerep (receptors and ion channels)

CLK3 = molecular target: T8, CLK3 (Homo sapiens, UniProt P49761); assay: Millipore kinase panel; type: biochemical; conditions: read-out: % Control
T8 construct: purchased Millipore KinaseProfiler (kinases); Cerep (receptors and ion channels)

5-HT transporter (h) = molecular target: T9, 5-HT transporter (h) (Homo sapiens, UniProt P31645); assay: CEREP binding panel; conditions: antagonist radioligand, read-out: % Inhibition of Control Specific Binding
T9 construct: purchased Millipore KinaseProfiler (kinases); Cerep (receptors and ion channels)

NLK = molecular target: T10, NLK (Homo sapiens, UniProt Q9UBE8); assay: Millipore kinase panel; type: biochemical; conditions: read-out: % Control
T10 construct: purchased Millipore KinaseProfiler (kinases); Cerep (receptors and ion channels)

FGFR4 = molecular target: T11, FGFR4 (Homo sapiens, UniProt P22455); assay: Millipore kinase panel; type: biochemical; conditions: read-out: % Control
T11 construct: purchased Millipore KinaseProfiler (kinases); Cerep (receptors and ion channels)

MSK1 = molecular target: T12, MSK1 (Homo sapiens, UniProt O75582); assay: Millipore kinase panel; type: biochemical; conditions: read-out: % Control
T12 construct: purchased Millipore KinaseProfiler (kinases); Cerep (receptors and ion channels)

SKCa channel = assay: CEREP binding panel; conditions: 10 μM, antagonist radioligand
TSSK1 = molecular target: T13, TSSK1 (Homo sapiens, UniProt Q9BXA7); assay: Millipore kinase panel; type: biochemical; conditions: read-out: % Control
T13 construct: purchased Millipore KinaseProfiler (kinases); Cerep (receptors and ion channels)

JNK2ALPHA2 = molecular target: T14, JNK2ALPHA2 (Homo sapiens, UniProt P45984); assay: Millipore kinase panel; type: biochemical; conditions: read-out: % Control
T14 construct: purchased Millipore KinaseProfiler (kinases); Cerep (receptors and ion channels)

PRKX = molecular target: T15, PRKX (Homo sapiens, UniProt P51817); assay: Millipore kinase panel; type: biochemical; conditions: read-out: % Control
T15 construct: purchased Millipore KinaseProfiler (kinases); Cerep (receptors and ion channels)

[1] = Caco-2 Papp determination; type: in vitro ADME, human; conditions: human, Caco-2; 1 μM, pH 7.4
FGR = molecular target: T16, FGR (Homo sapiens, UniProt P09769); assay: Millipore kinase panel; type: biochemical; conditions: read-out: % Control
T16 construct: purchased Millipore KinaseProfiler (kinases); Cerep (receptors and ion channels)

RSK1 = molecular target: T17, RSK1 (Homo sapiens, UniProt Q15418); assay: Millipore kinase panel; type: biochemical; conditions: read-out: % Control
T17 construct: purchased Millipore KinaseProfiler (kinases); Cerep (receptors and ion channels)

ULK3 = molecular target: T18, ULK3 (Homo sapiens, UniProt Q6PHR2); assay: Millipore kinase panel; type: biochemical; conditions: read-out: % Control
T18 construct: purchased Millipore KinaseProfiler (kinases); Cerep (receptors and ion channels)

[2] = test system: Ca2+ channel (L, verapamil site) (phenylalkylamine); assay: CEREP binding panel; conditions: 10 μM, antagonist radioligand
BRSK1 = molecular target: T19, BRSK1 (Homo sapiens, UniProt Q8TDC3); assay: Millipore kinase panel; type: biochemical; conditions: read-out: % Control
T19 construct: purchased Millipore KinaseProfiler (kinases); Cerep (receptors and ion channels)

FGFR3 = molecular target: T20, FGFR3 (Homo sapiens, UniProt P22607); assay: Millipore kinase panel; type: biochemical; conditions: read-out: % Control
T20 construct: purchased Millipore KinaseProfiler (kinases); Cerep (receptors and ion channels)

DYRK2 = molecular target: T21, DYRK2 (Homo sapiens, UniProt Q92630); assay: Millipore kinase panel; type: biochemical; conditions: read-out: % Control
T21 construct: purchased Millipore KinaseProfiler (kinases); Cerep (receptors and ion channels)

ERBB4 = molecular target: T22, ERBB4 (Homo sapiens, UniProt Q15303); assay: Millipore kinase panel; type: biochemical; conditions: read-out: % Control
T22 construct: purchased Millipore KinaseProfiler (kinases); Cerep (receptors and ion channels)

GABA (non-selective) = assay: CEREP binding panel; conditions: 10 μM, agonist radioligand
FER = molecular target: T23, FER (Homo sapiens, UniProt P16591); assay: Millipore kinase panel; type: biochemical; conditions: read-out: % Control
T23 construct: purchased Millipore KinaseProfiler (kinases); Cerep (receptors and ion channels)

PKD2 = molecular target: T24, PKD2 (Homo sapiens, UniProt Q9BZL6); assay: Millipore kinase panel; type: biochemical; conditions: read-out: % Control
T24 construct: purchased Millipore KinaseProfiler (kinases); Cerep (receptors and ion channels)

DAPK1 = molecular target: T25, DAPK1 (Homo sapiens, UniProt P53355); assay: Millipore kinase panel; type: biochemical; conditions: read-out: % Control
T25 construct: purchased Millipore KinaseProfiler (kinases); Cerep (receptors and ion channels)

PIM-2 = molecular target: T26, PIM-2 (Homo sapiens, UniProt Q9P1W9); assay: Millipore kinase panel; type: biochemical; conditions: read-out: % Control
T26 construct: purchased Millipore KinaseProfiler (kinases); Cerep (receptors and ion channels)

MET = molecular target: T27, MET (Homo sapiens, UniProt P08581); assay: Millipore kinase panel; type: biochemical; conditions: read-out: % Control
T27 construct: purchased Millipore KinaseProfiler (kinases); Cerep (receptors and ion channels)

EPHB4 = molecular target: T28, EPHB4 (Homo sapiens, UniProt P54760); assay: Millipore kinase panel; type: biochemical; conditions: read-out: % Control
T28 construct: purchased Millipore KinaseProfiler (kinases); Cerep (receptors and ion channels)

α2 (non-selective) = assay: CEREP binding panel; conditions: 10 μM, antagonist radioligand
FGFR2 = molecular target: T29, FGFR2 (Homo sapiens, UniProt P21802); assay: Millipore kinase panel; type: biochemical; conditions: read-out: % Control
T29 construct: purchased Millipore KinaseProfiler (kinases); Cerep (receptors and ion channels)

NK3 (h) = molecular target: T30, NK3 (h) (Homo sapiens, UniProt P29371); assay: CEREP binding panel; conditions: antagonist radioligand, read-out: % Inhibition of Control Specific Binding
T30 construct: purchased Millipore KinaseProfiler (kinases); Cerep (receptors and ion channels)

TLK2 = molecular target: T31, TLK2 (Homo sapiens, UniProt Q86UE8); assay: Millipore kinase panel; type: biochemical; conditions: read-out: % Control
T31 construct: purchased Millipore KinaseProfiler (kinases); Cerep (receptors and ion channels)

A1 (h) = molecular target: T32, A1 (h) (Homo sapiens, UniProt P30542); assay: CEREP binding panel; conditions: antagonist radioligand, read-out: % Inhibition of Control Specific Binding
T32 construct: purchased Millipore KinaseProfiler (kinases); Cerep (receptors and ion channels)

PIM-1 = molecular target: T33, PIM-1 (Homo sapiens, UniProt P11309); assay: Millipore kinase panel; type: biochemical; conditions: read-out: % Control
T33 construct: purchased Millipore KinaseProfiler (kinases); Cerep (receptors and ion channels)

SIK = molecular target: T34, SIK (Homo sapiens, UniProt P57059); assay: Millipore kinase panel; type: biochemical; conditions: read-out: % Control
T34 construct: purchased Millipore KinaseProfiler (kinases); Cerep (receptors and ion channels)

ZAP-70 = molecular target: T35, ZAP-70 (Homo sapiens, UniProt P43403); assay: Millipore kinase panel; type: biochemical; conditions: read-out: % Control
T35 construct: purchased Millipore KinaseProfiler (kinases); Cerep (receptors and ion channels)

GRK6 = molecular target: T36, GRK6 (Homo sapiens, UniProt P43250); assay: Millipore kinase panel; type: biochemical; conditions: read-out: % Control
T36 construct: purchased Millipore KinaseProfiler (kinases); Cerep (receptors and ion channels)

MLK1 = molecular target: T37, MLK1 (Homo sapiens, UniProt P80192); assay: Millipore kinase panel; type: biochemical; conditions: read-out: % Control
T37 construct: purchased Millipore KinaseProfiler (kinases); Cerep (receptors and ion channels)

SAPK3 = molecular target: T38, SAPK3 (Homo sapiens, UniProt P53778); assay: Millipore kinase panel; type: biochemical; conditions: read-out: % Control
T38 construct: purchased Millipore KinaseProfiler (kinases); Cerep (receptors and ion channels)

ULK2 = molecular target: T39, ULK2 (Homo sapiens, UniProt Q8IYT8); assay: Millipore kinase panel; type: biochemical; conditions: read-out: % Control
T39 construct: purchased Millipore KinaseProfiler (kinases); Cerep (receptors and ion channels)

T3 sequence (Q15139 whole entry): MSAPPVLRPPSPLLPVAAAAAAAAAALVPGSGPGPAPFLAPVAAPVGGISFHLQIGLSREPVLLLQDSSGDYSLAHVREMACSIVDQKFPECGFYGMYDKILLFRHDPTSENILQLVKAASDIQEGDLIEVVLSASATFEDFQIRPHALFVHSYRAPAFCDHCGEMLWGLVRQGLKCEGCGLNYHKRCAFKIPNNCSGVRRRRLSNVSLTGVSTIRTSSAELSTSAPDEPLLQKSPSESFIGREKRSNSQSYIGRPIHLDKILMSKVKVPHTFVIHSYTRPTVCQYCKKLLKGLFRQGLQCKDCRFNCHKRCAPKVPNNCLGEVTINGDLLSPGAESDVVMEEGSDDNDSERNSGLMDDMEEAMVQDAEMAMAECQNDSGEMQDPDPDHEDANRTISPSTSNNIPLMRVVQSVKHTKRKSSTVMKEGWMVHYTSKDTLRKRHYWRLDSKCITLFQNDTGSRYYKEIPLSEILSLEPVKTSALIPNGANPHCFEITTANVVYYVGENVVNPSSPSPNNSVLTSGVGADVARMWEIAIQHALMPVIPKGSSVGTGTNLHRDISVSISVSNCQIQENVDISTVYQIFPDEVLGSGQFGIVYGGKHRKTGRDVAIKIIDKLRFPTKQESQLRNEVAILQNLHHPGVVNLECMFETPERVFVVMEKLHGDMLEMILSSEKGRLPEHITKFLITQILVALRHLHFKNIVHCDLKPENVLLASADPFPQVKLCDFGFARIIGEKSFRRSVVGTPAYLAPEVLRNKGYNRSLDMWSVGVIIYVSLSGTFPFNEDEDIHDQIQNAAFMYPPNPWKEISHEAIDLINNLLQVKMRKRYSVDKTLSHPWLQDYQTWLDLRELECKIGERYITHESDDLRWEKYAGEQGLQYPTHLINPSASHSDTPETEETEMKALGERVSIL
T4 sequence (P25025 whole entry): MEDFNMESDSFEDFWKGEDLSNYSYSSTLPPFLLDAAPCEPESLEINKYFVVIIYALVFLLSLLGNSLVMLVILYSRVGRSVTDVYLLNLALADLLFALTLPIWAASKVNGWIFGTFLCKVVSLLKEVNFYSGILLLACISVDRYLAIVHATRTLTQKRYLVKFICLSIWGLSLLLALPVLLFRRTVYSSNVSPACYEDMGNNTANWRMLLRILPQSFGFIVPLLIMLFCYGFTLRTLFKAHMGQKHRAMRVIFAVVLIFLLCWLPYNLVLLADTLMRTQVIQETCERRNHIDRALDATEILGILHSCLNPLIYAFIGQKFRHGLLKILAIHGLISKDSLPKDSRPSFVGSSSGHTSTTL
T14 sequence (P45984 whole entry): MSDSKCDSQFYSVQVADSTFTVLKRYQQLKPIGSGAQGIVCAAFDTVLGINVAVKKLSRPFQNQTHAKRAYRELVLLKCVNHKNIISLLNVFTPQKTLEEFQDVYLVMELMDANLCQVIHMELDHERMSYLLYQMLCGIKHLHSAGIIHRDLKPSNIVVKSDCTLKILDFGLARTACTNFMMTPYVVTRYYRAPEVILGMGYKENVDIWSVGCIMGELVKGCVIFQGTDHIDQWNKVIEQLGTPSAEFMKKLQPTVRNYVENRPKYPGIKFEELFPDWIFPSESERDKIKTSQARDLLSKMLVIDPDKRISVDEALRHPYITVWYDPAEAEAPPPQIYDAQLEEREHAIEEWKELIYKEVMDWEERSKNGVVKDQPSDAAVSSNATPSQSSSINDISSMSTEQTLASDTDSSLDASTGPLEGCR
T13 sequence (Q9BXA7 whole entry): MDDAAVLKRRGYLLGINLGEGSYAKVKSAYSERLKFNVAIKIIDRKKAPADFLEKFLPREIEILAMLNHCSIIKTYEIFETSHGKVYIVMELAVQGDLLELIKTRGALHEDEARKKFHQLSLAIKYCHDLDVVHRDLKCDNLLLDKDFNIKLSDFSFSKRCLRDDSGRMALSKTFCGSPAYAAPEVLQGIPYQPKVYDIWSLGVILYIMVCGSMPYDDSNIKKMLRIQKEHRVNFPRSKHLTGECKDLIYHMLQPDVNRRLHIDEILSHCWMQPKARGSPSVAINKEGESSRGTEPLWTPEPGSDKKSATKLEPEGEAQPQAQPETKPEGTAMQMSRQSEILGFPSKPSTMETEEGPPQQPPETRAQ
T36 sequence (P43250 whole entry): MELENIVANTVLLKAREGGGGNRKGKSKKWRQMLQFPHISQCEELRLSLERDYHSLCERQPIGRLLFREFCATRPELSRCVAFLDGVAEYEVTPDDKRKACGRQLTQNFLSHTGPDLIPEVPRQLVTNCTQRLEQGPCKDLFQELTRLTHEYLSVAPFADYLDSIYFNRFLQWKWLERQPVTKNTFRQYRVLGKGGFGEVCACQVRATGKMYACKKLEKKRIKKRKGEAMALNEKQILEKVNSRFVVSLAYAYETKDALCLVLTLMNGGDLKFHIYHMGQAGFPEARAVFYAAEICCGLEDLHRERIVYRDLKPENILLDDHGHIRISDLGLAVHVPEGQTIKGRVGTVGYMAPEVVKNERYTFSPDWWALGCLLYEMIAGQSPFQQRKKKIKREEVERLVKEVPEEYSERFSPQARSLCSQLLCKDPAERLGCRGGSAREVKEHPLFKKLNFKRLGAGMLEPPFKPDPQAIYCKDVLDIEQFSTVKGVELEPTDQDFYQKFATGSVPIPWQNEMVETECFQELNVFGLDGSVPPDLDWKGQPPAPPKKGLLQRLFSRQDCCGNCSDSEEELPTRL
T6 sequence (Q9P286 whole entry): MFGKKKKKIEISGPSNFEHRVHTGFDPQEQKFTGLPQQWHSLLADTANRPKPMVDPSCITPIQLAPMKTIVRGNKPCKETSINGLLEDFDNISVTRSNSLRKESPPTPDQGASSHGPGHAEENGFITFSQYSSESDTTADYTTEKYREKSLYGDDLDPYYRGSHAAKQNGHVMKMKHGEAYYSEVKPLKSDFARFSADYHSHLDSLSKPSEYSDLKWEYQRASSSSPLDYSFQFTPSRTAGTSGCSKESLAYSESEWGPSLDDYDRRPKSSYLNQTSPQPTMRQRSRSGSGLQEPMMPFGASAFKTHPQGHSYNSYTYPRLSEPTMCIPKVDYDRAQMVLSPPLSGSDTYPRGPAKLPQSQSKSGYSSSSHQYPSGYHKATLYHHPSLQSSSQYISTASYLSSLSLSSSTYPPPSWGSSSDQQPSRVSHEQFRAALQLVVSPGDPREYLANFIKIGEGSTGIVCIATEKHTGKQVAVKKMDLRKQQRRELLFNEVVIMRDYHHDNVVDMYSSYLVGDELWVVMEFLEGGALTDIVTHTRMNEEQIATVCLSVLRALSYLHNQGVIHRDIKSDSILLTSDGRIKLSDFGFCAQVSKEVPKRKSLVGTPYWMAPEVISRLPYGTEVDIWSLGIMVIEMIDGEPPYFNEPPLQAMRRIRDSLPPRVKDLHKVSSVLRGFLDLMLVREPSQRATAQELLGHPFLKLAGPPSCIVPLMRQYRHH
T25 sequence (P53355 whole entry): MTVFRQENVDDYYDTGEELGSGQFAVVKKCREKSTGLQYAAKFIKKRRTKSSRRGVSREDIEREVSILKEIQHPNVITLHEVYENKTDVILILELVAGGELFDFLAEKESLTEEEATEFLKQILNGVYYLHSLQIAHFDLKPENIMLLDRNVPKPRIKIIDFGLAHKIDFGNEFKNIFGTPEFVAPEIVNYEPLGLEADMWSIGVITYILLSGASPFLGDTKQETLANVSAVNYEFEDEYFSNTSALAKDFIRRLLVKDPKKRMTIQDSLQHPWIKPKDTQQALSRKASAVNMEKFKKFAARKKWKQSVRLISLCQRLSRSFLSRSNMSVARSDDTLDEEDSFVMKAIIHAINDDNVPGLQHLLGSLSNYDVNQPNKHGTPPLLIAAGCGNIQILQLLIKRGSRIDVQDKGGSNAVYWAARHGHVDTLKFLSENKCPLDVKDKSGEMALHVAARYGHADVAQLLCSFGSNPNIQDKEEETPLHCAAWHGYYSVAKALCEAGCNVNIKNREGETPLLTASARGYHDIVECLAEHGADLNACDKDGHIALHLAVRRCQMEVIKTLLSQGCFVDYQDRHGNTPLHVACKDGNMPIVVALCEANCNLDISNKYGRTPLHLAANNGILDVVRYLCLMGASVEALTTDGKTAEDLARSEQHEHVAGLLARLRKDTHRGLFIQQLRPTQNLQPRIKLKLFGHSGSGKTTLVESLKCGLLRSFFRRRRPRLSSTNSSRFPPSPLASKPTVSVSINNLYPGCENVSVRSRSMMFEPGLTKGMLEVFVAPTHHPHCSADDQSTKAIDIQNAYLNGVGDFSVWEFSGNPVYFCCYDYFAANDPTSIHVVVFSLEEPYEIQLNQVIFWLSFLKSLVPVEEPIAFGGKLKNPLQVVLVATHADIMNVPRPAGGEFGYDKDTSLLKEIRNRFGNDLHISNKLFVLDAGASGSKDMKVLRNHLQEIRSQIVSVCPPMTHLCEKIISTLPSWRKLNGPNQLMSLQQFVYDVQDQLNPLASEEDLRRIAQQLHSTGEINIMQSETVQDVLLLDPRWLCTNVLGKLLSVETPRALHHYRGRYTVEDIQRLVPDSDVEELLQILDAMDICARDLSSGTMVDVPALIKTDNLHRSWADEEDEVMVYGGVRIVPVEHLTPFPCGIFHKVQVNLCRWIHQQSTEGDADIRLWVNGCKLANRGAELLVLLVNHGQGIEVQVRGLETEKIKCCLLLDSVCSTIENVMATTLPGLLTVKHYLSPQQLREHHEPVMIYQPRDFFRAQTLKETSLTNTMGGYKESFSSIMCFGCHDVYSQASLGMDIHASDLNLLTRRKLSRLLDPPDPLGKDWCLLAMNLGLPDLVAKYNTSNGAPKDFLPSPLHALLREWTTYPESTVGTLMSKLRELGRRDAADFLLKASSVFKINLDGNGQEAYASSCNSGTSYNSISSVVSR

## Cn1cc(-c2ccc(-c3cncc(Cl)c3N3CCC4(CCNC4=O)CC3)cc2)cn1 [Compound 74, 8-(3-Chloro-5-(4-(1-methyl-1H-pyrazol-4-yl)phenyl)pyridin-4-yl)-2,8-diazaspiro[4.5]decan-1-one]
CCR1 (h)
  inhibition at 10 µM: -4%
CCK1 (CCKA) (h)
  inhibition at 10 µM: 2%
PKCMU
  remaining activity at 1 µM: -1%
CXCR2 (IL-8B) (h)
  inhibition at 10 µM: -6%
5-HT1A (h)
  inhibition at 10 µM: 19%
PAK5
  remaining activity at 1 µM: 4%
STK33
  remaining activity at 1 µM: 9%
CLK3
  remaining activity at 1 µM: -8%
5-HT transporter (h)
  inhibition at 10 µM: 70%
NLK
  remaining activity at 1 µM: 0%
FGFR4
  remaining activity at 1 µM: 0%
MSK1
  remaining activity at 1 µM: 5%
SKCa channel
  % Inhibition of Control Specific Binding: 3%
TSSK1
  remaining activity at 1 µM: 2%
JNK2ALPHA2
  remaining activity at 1 µM: 5%
PRKX
  remaining activity at 1 µM: 2%
[1]
  Papp at 2 h, 1 μM: 24 ×10⁻⁶ cm/s
FGR
  remaining activity at 1 µM: 0%
RSK1
  remaining activity at 1 µM: -23%
ULK3
  remaining activity at 1 µM: -2%
[2]
  % Inhibition of Control Specific Binding: 7%
BRSK1
  remaining activity at 1 µM: -25%
FGFR3
  remaining activity at 1 µM: -4%
DYRK2
  remaining activity at 1 µM: -9%
ERBB4
  remaining activity at 1 µM: 0%
GABA (non-selective)
  % Inhibition of Control Specific Binding: 5%
FER
  remaining activity at 1 µM: 11%
PKD2
  remaining activity at 1 µM: 7%
DAPK1
  remaining activity at 1 µM: 0%
PIM-2
  remaining activity at 1 µM: 13%
MET
  remaining activity at 1 µM: 3%
EPHB4
  remaining activity at 1 µM: 10%
α2 (non-selective)
  % Inhibition of Control Specific Binding: 0%
FGFR2
  remaining activity at 1 µM: -6%
NK3 (h)
  inhibition at 10 µM: 4%
TLK2
  remaining activity at 1 µM: -9%
A1 (h)
  inhibition at 10 µM: -12%
PIM-1
  remaining activity at 1 µM: -11%
SIK
  remaining activity at 1 µM: 20%
ZAP-70
  remaining activity at 1 µM: 6%
GRK6
  remaining activity at 1 µM: -1%
MLK1
  remaining activity at 1 µM: -5%
SAPK3
  remaining activity at 1 µM: 13%
ULK2
  remaining activity at 1 µM: -2%
